From paper PMC8395285, “Novel 2-(Adamantan-1-ylamino)Thiazol-4(5H)-One Derivatives and Their Inhibitory Activity towards 11β-HSD1—Synthesis, Molecular Docking and In Vitro Studies” (International Journal of Molecular Sciences, 2021)

Experiments:
11β-HSD2 = target: T1, 11β-HSD2 (Homo sapiens, UniProt P80365); experiment: Inhibition of 11β-HSD2 (cortisol to cortisone, human microsomes, cortisol ELISA); type: biochemical; conditions: 10 µM compound, 2.5 h at 37 °C
T1 construct: Human liver microsomes were used as a source of 11β-HSD2 enzyme; tissue XenoTech Lot No. 1710160; host or cells: human kidney microsomes, mixed gender (the method paragraph says human liver microsomes)
T1 sequence (P80365 1-405): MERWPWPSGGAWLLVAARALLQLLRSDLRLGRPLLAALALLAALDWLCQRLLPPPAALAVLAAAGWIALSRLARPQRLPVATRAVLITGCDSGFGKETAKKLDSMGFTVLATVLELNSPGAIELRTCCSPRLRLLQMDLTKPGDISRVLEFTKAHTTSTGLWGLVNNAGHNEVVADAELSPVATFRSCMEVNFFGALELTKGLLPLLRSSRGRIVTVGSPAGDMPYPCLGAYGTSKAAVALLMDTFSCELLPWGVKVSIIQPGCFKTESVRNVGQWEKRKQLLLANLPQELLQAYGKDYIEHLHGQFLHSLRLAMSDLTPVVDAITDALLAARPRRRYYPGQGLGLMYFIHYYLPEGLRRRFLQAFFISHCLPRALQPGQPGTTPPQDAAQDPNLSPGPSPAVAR
Experimental: […] […] The level of unreacted cortisol was measured by commercially available ELISA kit.
(§1) As a control, analogous tests without the addition of inhibitors were used. Half the inhibitory concentration (causing 50% reduction of cortisol or cortisone) was read from the chart.

11β-HSD1 = target: T2, 11β-HSD1 (Homo sapiens, UniProt P28845); experiment: Inhibition of 11β-HSD1 (cortisone to cortisol, human liver microsomes, cortisol ELISA); type: biochemical; conditions: for inhibition at 10 µM: 10 µM compound, 2.5 h at 37 °C; for IC50: concentrations 0.625-10.0 µM, read from the chart
T2 construct: Human liver microsomes were used as a source of 11β-HSD1 enzyme; tissue XenoTech Lot No.1410013; host or cells: pooled human liver microsomes, mixed gender
T2 sequence (P28845 whole entry): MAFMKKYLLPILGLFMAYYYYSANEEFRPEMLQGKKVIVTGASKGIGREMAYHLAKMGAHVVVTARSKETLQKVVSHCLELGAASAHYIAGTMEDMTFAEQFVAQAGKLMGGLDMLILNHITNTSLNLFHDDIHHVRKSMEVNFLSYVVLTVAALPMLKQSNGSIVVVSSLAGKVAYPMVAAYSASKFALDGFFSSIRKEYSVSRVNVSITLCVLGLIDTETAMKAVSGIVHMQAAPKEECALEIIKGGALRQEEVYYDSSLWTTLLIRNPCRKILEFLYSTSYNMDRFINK
Experimental: To stop the reaction, 10 µL of a 100 µM solution of 18β-glycyrrhetinic acid in PBS was added. The level of cortisol obtained in the reaction was measured by commercially available ELISA kit.
as §1

Row | SMILES | inhibition at 10 µM (11β-HSD2) [%] | inhibition at 10 µM (11β-HSD1) [%] | IC50 (11β-HSD1) [µM] | melting point [°C]
1 | O=C1CSC(NC23CC4CC(CC(C4)C2)C3)=N1 [3a, 2-(adamantan-1-ylamino)thiazol-4(5H)-one] | 29.8 ± 4.21 | 22.3 ± 5.31 | > 10 | 271 to 273
2 | O=C1N=C(NC23CC4CC(CC(C4)C2)C3)SC12CCC2 [3j, 6-(adamantan-1-ylamino)-5-thia-7-azaspiro[3.4]oct-6-en-8-one] | 41.4 ± 4.22 | 74.1 ± 2.85 | 3.32 ± 0.24 | 265 to 266
3 | O=C1N=C(NC23CC4CC(CC(C4)C2)C3)SC1c1ccc(Br)cc1 (stereo not drawn) [3h, 2-(adamantan-1-ylamino)-5-(4-bromophenyl)thiazol-4(5H)-one] | 41.8 ± 6.12 | 15.3 ± 0.49 | > 10 | 
4 | O=C1N=C(NC23CC4CC(CC(C4)C2)C3)SC1c1ccccc1 (stereo not drawn) [3g, 2-(adamantan-1-ylamino)-5-phenylthiazol-4(5H)-one] | 18.3 ± 3.18 | 46.3 ± 5.53 | > 10 | 
5 | CC1(C)SC(NC23CC4CC(CC(C4)C2)C3)=NC1=O [3f, 2-(adamantan-1-ylamino)-5,5-dimethylthiazol-4(5H)-one] | 24.5 ± 3.24 | 66 ± 1.12 | 6.11 ± 0.62 | 208 to 210
6 | CC1SC(NC23CC4CC(CC(C4)C2)C3)=NC1=O (stereo not drawn) [3b, 2-(adamantan-1-ylamino)-5-methylthiazol-4(5H)-one] | 44.7 ± 4.19 | 62.1 ± 3.59 | 3.52 ± 0.19 | 265 to 267
7 | CC1(C)[C@@H](OC(=O)CCC(=O)O)CC[C@]2(C)[C@H]3C(=O)C=C4[C@@H]5C[C@@](C)(C(=O)O)CC[C@]5(C)CC[C@@]4(C)[C@]3(C)CC[C@@H]12 [carbenoxolone, reference compound] |  | 84.8 ± 6.23 |  | 
8 | CCC1SC(NC23CC4CC(CC(C4)C2)C3)=NC1=O (stereo not drawn) [3c, 2-(adamantan-1-ylamino)-5-ethylthiazol-4(5H)-one] | 14.4 ± 1.16 | 69.2 ± 5.12 | 5.44 ± 0.32 | 257 to 259
9 | CCCC1SC(NC23CC4CC(CC(C4)C2)C3)=NC1=O (stereo not drawn) [3d, 2-(adamantan-1-ylamino)-5-propylthiazol-4(5H)-one] | 28.9 ± 4.11 | 72.4 ± 2.63 | 3.23 ± 0.26 | 247 to 249
10 | CC(C)C1SC(NC23CC4CC(CC(C4)C2)C3)=NC1=O (stereo not drawn) [3e, 2-(adamantan-1-ylamino)-5-isopropylthiazol-4(5H)-one] | 16.4 ± 2.06 | 76.4 ± 2.55 | 1.19 ± 0.21 | 239 to 241
11 | O=C1N=C(NC23CC4CC(CC(C4)C2)C3)SC12CCCCC2 [3i, 2-(adamantan-1-ylamino)-1-thia-3-azaspiro [4.5]dec-2-en-4-one] | > 44 | 82.8 ± 2.05 | 0.31 ± 0.05 | 268 to 270
